Reference: publication PMC11249953, “c-KIT inhibitors reduce pathology and improve behavior in the Tg(SwDI) model of Alzheimer’s disease” (Life Science Alliance, 2024)
Where “and” joins values, the source holds several entries; their conditions need not be identical. Identical values can stand only once.

How the values were obtained:
TgAPP mice = test: Morris water maze, TgAPP mice; assay type: in vivo, mouse; set-up: Platform Distance: unit not given beside the values; Total Distance / Quad Time / Quad Distance / Trial 1 D4 / Trial 1 D4 AVG: unit not given here
Protocol: The Morris water maze was performed using a water bath 6 ft in diameter and filled with roughly 1 ft of water. The maze was divided into four quadrants, each with a visual stimulus positioned on the wall of the maze in the center of the quadrant arc. A clear platform was placed in one quadrant just beneath the surface of the water. Mice were then placed in a random non-platform quadrant and allowed to swim freely for 60 s (time was stopped and recorded if the mouse found the platform) before being placed on the platform for 15 s and returned to their cage. This was repeated for each of the three quadrants each day for 4 d. On the 5th d, the platform was removed and mice were placed in the quadrant opposite of where the platform had been and allowed to swim freely for 1 min before being returned to their cage. Time spent in the correct quadrant, latency to the platform, number of platform entries, and number of quadrant entries were recorded.

ABL1 = target: T1, ABL1 (Homo sapiens, UniProt P00519); test: KINOMEscan competition binding, ABL1; conditions: 10 µM compound
T1 construct: DNA label for qPCR read-out (T7 phage fusion or DNA tag); purchased Eurofins DiscoverX Corporation; host or cells: T7 phage in E. coli (BL21-derived) or HEK-293
T1 sequence (P00519 whole entry, the tested form may be a part): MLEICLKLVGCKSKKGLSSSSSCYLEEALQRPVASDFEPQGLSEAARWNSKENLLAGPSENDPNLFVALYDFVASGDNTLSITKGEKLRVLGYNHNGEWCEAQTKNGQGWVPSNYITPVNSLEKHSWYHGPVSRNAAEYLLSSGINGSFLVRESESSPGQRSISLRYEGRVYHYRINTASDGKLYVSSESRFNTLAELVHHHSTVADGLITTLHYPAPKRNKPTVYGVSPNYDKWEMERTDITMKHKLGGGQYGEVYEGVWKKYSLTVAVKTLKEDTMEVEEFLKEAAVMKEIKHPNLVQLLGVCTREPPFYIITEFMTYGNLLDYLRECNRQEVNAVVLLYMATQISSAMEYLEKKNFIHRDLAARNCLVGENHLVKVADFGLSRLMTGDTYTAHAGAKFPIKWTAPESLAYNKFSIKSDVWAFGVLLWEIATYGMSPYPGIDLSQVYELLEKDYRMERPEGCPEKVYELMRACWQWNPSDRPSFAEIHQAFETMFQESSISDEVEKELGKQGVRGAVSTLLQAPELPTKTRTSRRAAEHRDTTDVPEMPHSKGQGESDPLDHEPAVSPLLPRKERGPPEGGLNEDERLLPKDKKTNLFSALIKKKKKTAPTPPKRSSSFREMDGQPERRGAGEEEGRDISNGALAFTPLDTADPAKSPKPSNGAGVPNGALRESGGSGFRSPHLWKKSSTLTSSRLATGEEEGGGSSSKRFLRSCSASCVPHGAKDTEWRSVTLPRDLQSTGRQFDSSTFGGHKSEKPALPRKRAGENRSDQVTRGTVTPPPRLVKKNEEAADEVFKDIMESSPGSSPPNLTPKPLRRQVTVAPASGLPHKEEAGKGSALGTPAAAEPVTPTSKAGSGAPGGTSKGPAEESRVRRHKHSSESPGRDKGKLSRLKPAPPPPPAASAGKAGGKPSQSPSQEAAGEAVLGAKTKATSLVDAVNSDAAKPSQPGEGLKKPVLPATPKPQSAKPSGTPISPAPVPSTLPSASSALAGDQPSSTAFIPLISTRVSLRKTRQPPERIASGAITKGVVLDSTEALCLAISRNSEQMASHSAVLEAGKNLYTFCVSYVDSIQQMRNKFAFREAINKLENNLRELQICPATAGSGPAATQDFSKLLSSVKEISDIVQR
Protocol: (§1) The KINOMEscan screening platform (Eurofins DiscoverX Corporation) was performed using active site-directed competition binding assay to quantitatively measure interactions between BK40143 and BK40197 and more than 450 human kinases and disease relevant mutant variants. […] Screening “hits” are identified by measuring the amount of kinase captured in test (BK40143 and BK40197) versus control samples by using a quantitative and ultra-sensitive qRT-PCR method that detects the associated DNA label. BK40143 and BK40197 were screened at 10 µM concentration, and results for primary screen binding interactions were reported as “% Ctrl” (POC), where lower numbers indicate stronger hits and calculated as follows: [test compound signal−positive control signal/negative control signal−positive control signal]×100
(§2) negative control = DMSO (100% Ctrl)
(§3) positive control = control compound (0% Ctrl)
(§4) Based on screening data from of profiled compounds, a proportional relationship between primary screening results and corresponding compound/target affinities can be described as binding constants (Kd values) for the indicated ranges of POC values with tighter binding (higher affinity) interactions associated with lower POC values and weaker binding (lower affinity) associated with higher POC values. Briefly, kinase-tagged T7 phage strains were grown in parallel in 24-well blocks in an E. coli host derived from the BL21 strain. E. coli were grown to log-phase and infected with T7 phage from a frozen stock (multiplicity of infection = 0.4) and incubated with shaking at 32°C until lysis (90–150 min). The lysates were centrifuged (6,000g) and filtered (0.2 μm) to remove cell debris. The remaining kinases were produced in HEK-293 cells and subsequently tagged with DNA for qRT-PCR detection. Streptavidin-coated magnetic beads were treated with biotinylated small molecule ligands for 30 min at RT to generate affinity resins for kinase assays. The liganded beads were blocked with excess biotin and washed with blocking buffer (1% BSA, 0.05% Tween 20, 1 mM DTT; SeaBlock [Pierce]) to remove unbound ligand and to reduce non-specific phage binding. Binding reactions were assembled by combining kinases, liganded affinity beads, and test compounds in 1x binding buffer (20% 0.17x PBS, 0.05% Tween 20, 6 mM DTT; SeaBlock). Test compounds were prepared as 100x stocks in 100% DMSO and directly diluted into the assay. All reactions were performed in polypropylene 384-well plates in a final volume of 0.02 ml. The assay plates were incubated at RT with shaking for 1 h and the affinity beads were washed with wash buffer (1x PBS, 0.05% Tween 20). […] The kinase concentration in the eluates was measured by qRT-PCR.

mice = test: Nesting, source data sheets Nesting (mouse line not given); assay type: in vivo; set-up: key to Nesting Score AVG (of three observers) / Nesting Score AVG, group mean / Nesting Score / Nesting Score AVG: 0 = nestlet untouched to 5 = near perfect nest; conditions: one value per mouse, listed as 197
Protocol: Mice were singly housed in standard cages overnight (6 pm–6 am) with a 3-gram cloth nestlet and allowed to freely behave. The next day, nestlets were weighed and photographed, and amount of nestlet shredding was recorded by three observers based on the following scale: 0—nestlet untouched, 1—nestlet hardly touched (more than 90% intact), 2—nestlet partially torn (50–90% intact), 3—mostly shredded but no identifiable nest, less than 50% intact but less than 90% in a single quarter of the cage, 4—An identifiable but flat nest, more than 90% torn and material is gathered in a single quarter of the cage, 5—A near perfect nest, more than 90% of the nestlet is torn and the nest is a crater, with walls higher than the mouse body height.

CIT = target: T2, CIT (Homo sapiens, UniProt O14578); test: KINOMEscan competition binding, CIT; conditions: 10 µM compound
T2 construct: DNA label for qPCR read-out (T7 phage fusion or DNA tag); purchased Eurofins DiscoverX Corporation; host or cells: T7 phage in E. coli (BL21-derived) or HEK-293
T2 sequence (O14578 whole entry, the tested form may be a part): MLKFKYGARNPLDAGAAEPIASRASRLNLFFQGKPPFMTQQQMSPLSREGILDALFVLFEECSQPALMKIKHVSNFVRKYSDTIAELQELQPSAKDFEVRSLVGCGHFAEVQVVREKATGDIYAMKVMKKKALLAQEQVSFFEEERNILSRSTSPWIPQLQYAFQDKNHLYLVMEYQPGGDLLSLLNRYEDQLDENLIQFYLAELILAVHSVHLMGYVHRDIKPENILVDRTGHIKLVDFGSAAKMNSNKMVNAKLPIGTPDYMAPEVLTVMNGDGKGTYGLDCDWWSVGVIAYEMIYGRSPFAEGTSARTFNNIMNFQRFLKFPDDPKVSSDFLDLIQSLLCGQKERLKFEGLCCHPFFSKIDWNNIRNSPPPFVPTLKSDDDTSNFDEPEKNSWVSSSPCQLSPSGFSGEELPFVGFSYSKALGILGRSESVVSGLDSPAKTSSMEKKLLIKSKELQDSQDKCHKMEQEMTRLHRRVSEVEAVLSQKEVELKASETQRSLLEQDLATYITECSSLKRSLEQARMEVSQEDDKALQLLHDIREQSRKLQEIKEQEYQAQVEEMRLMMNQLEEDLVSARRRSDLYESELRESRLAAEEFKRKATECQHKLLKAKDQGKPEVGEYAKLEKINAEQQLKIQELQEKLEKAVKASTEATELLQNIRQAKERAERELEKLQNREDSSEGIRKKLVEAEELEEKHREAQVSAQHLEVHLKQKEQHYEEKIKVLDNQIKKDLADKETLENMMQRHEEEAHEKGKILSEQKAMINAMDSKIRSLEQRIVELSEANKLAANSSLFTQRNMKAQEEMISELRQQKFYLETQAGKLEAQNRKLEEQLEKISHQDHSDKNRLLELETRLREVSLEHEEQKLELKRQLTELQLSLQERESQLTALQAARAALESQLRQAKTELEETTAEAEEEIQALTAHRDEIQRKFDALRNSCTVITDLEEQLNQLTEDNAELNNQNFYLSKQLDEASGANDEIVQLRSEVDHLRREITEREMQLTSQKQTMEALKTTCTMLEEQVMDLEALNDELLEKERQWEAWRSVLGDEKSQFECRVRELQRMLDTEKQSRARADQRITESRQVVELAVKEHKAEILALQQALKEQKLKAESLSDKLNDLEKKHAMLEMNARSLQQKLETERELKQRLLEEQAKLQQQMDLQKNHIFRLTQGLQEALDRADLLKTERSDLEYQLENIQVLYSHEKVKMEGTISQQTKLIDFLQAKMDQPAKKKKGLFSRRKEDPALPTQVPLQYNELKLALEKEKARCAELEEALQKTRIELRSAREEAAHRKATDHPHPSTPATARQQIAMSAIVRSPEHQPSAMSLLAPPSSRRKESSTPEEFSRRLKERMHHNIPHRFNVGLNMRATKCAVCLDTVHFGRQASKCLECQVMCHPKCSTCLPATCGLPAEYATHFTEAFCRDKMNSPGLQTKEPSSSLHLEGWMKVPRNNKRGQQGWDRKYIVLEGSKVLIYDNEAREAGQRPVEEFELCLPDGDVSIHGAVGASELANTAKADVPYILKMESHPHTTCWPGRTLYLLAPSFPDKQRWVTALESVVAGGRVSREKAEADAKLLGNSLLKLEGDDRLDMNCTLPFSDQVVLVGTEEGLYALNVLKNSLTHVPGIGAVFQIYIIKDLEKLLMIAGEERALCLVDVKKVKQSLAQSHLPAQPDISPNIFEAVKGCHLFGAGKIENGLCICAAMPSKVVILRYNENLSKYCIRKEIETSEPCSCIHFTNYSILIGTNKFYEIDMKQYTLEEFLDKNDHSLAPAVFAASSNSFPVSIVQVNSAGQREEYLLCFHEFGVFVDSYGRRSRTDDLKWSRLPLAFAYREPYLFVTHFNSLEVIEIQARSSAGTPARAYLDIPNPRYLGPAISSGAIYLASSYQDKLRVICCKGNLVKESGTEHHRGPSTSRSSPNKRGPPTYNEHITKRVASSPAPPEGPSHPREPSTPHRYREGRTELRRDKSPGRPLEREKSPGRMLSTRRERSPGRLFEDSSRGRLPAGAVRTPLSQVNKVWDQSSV
Protocol: as §1, §2, §3, §4

[1] = MWM Probe, single animal values, listed as 197
[2] = MWM Probe, single animal values, listed as 197, in s (unit assumed)
[3] = MWM training, Day 1, single animal values, listed as 197
[4] = MWM training, Day 2, single animal values, listed as 197
[5] = MWM training, Day 3, single animal values, listed as 197
[6] = MWM training, Day 4, single animal values, listed as 197

Cc1cccc(-c2cc3nccc(N4CCOCC4)c3s2)c1 [BK40197]
Platform Distance (TgAPP mice; [1]): 0 and 0.487 and 0.423 and 1.393 and 0.128 and 0.196 and 0.299 and 0.391
Platform Entries (TgAPP mice; [1]): 0 and 3 and 4 and 8 and 1 and 2
Quad Distance (TgAPP mice; [1]): 2.071 and 3.416 and 4.643 and 7.432 and 1.451 and 3.963 and 3.288 and 3.437 and 3.953
Quad Distance/Total (TgAPP mice; [1]): 0.09759 and 0.2373 and 0.3151 and 0.3933 and 0.09964 and 0.2157 and 0.2602 and 0.2506 and 0.2518
Quad Entries (TgAPP mice; [1]): 3 and 7 and 8 and 16 and 5 and 6 and 4
Quad Time (TgAPP mice; [1]): 9.1 and 12.9 and 22.8 and 25.1 and 6.9 and 11.1 and 16.2 and 14.3 and 14.6
Total Distance (TgAPP mice; [1]): 21.221 and 14.396 and 14.736 and 18.898 and 14.562 and 18.377 and 12.635 and 13.714 and 15.701
Platform Latency (TgAPP mice; MWM Probe, single animal values, listed as 197, in s): 60 and 2.1 and 31.3 and 11.1 and 21.2 and 56 and 26.7 and 7.2
Platform Time (TgAPP mice; [2]): 0 and 1.9 and 1.5 and 5.2 and 0.3 and 0.7 and 1 and 1.4
Quad Latency (TgAPP mice; [2]): 4.7 and 3 and 16.9 and 2.3 and 4.3 and 3.9 and 21.1 and 6.8 and 3.2
Quad Time per Entry (TgAPP mice; [2]): 3.033 and 1.843 and 2.85 and 1.569 and 1.38 and 1.85 and 4.05 and 3.575 and 1.825
Training Day 1 AVG (TgAPP mice; MWM training, Day 1, group average): 45.4333
Training Day 1, mean of the three trials per animal (TgAPP mice; MWM training, Day 1, per-animal mean, listed as 197): 43.78 and 60 and 43.62 and 54.8167 and 46.8067 and 44.7133 and 26.0367 and 29.1267
Training Day 1, trial 1 (TgAPP mice; [3]): 60 and 47.21 and 31.28 and 46.64
Training Day 1, trial 2 (TgAPP mice; [3]): 11.34 and 60 and 54.03 and 25.14 and 29.4
Training Day 1, trial 4 (TgAPP mice; [3]): 60 and 23.65 and 44.45 and 26.39 and 14.14 and 21.69 and 11.34
Training Day 2 AVG (TgAPP mice; MWM training, Day 2, group average): 47.2204
Training Day 2, mean of the three trials per animal (TgAPP mice; MWM training, Day 2, per-animal mean, listed as 197): 13.1033 and 49.5833 and 60 and 36.82 and 56.3433 and 52.21 and 40.7533 and 56.17
Training Day 2, trial 1 (TgAPP mice; [4]): 7.57 and 60
Training Day 2, trial 2 (TgAPP mice; [4]): 5.62 and 60 and 36.25 and 49.03 and 36.63 and 55.69
Training Day 2, trial 4 (TgAPP mice; [4]): 26.12 and 28.75 and 60 and 14.21 and 6.57 and 48.51
Training Day 3 AVG (TgAPP mice; MWM training, Day 3, group average): 28.2515
Training Day 3, mean of the three trials per animal (TgAPP mice; MWM training, Day 3, per-animal mean, listed as 197): 11.39 and 34.5433 and 18.6367 and 42.7367 and 27.2267 and 23.27 and 38.7467 and 28.4767 and 29.2367
Training Day 3, trial 1 (TgAPP mice; [5]): 9.97 and 10.56 and 13.44 and 8.21 and 13.9 and 27.12 and 60 and 23.21 and 11.51
Training Day 3, trial 2 (TgAPP mice; [5]): 6.2 and 40.75 and 11.22 and 60 and 7.78 and 16.82 and 30.27 and 28.53 and 34.18
Training Day 3, trial 4 (TgAPP mice; [5]): 18 and 52.32 and 31.25 and 60 and 25.87 and 25.97 and 33.69 and 42.02
Trial 1 D4 AVG (TgAPP mice; MWM training, Day 4, Trial 1, group average): 16.0867
Trial 1 D4 (TgAPP mice; MWM training, Day 4, Trial 1, single animal values listed by group, listed as 197): 29.9 and 18.58 and 17.08 and 9.97 and 12.28 and 11 and 6.82 and 20 and 19.15
Training Day 4 AVG (TgAPP mice; MWM training, Day 4, group average): 27.9559
Training Day 4, mean of the three trials per animal (TgAPP mice; MWM training, Day 4, per-animal mean, listed as 197): 18.2367 and 14.52 and 22.8833 and 26.0267 and 20.9367 and 33.48 and 29.6433 and 39.9233 and 45.9533
Training Day 4, trial 1 (TgAPP mice; [6]): 33 and 13.59 and 44.97 and 60 and 41.71 and 20.44 and 36.65
Training Day 4, trial 2 (TgAPP mice; [6]): 17.08 and 9.97 and 12.28 and 11 and 6.82 and 20 and 19.15 and 29.9 and 18.58
Training Day 4, trial 4 (TgAPP mice; [6]): 4.63 and 20 and 11.4 and 7.08 and 14.28 and 60 and 9.78 and 53.22 and 59.28
Morris water maze training trials: time to locate the platform (TgAPP mice; TgAPP mice, BK40143 5 mg/kg, BK40197 45 mg/kg IP, 6 wk, vs DMSO): locate the platform significantly quicker on later training trials
inhibition at 10 µM (ABL1): 60%
remaining binding at 10 µM (ABL1; lower = stronger binding, read-out: ABL1 %Ctrl @ 10000nM): 40%
Nesting Score (mice; average score of the raters listed by treatment group): 2 and 1 and 0.5 and 0 and 3
Nesting Score AVG (mice; nesting, average of the raters): 2 and 1 and 3 and 0.5 and 0
Nesting Score (KORLISS) (mice; nesting, rater KORLISS): 2 (nestlet partially torn (50–90% intact)) and 1 (nestlet hardly touched (more than 90% intact)) and 4 and 0
Nesting Score(MAX) (mice; nesting, rater MAX): 2 (nestlet partially torn (50–90% intact)) and 1 (nestlet hardly touched (more than 90% intact)) and 0
Weight (mice; nestlet weight listed by treatment group, in g (unit assumed)): 2.1 and 2.8 and 2.5 and 2.6 and 2.9 and 1.7
inhibition at 10 µM (CIT): 19%
remaining binding at 10 µM (CIT; lower = stronger binding, read-out: CIT %Ctrl @ 10000nM (POC)): 81%
